Test results published in ChEMBL document CHEMBL1201862, “PubChem BioAssay data set” (2004).
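Protocol summary: plate cells (96-well), add compound at 5 concentrations, incubate 48 h, interpolate endpoints linearly. At the GI50, growth is halved.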 Active and inactive are the calls of the source. No stated cut-off is given here; in the data, active = GI50 up to about 1.1 µM and inactive = higher.

How the values were obtained:
Test in all cases: DTP human tumour cell line panel, 48 h
[1] = system: 786-0
[2] = system: A498
[3] = system: A549
[4] = system: ACHN
[5] = system: BT-549
[6] = system: CAKI-1
[7] = system: CCRF-CEM
[8] = system: COLO 205
[9] = system: DU-145
[10] = system: EKVX
[11] = system: HCC 2998
[12] = system: HCT-116
[13] = system: HCT-15
[14] = system: HL-60
[15] = system: HOP-62
[16] = system: HOP-92
[17] = system: HT-29
[18] = system: Hs-578T
[19] = system: IGROV-1
[20] = system: K562
[21] = system: KM12
[22] = system: LOX IMVI
[23] = system: M14
[24] = system: MCF7
[25] = system: MDA-MB-231
[26] = system: MDA-MB-435
[27] = system: MDA-N
[28] = system: MOLT-4
[29] = system: Malme-3M
[30] = system: NCI-H226
[31] = system: NCI-H23
[32] = system: NCI-H460
[33] = system: NCI-H522
[34] = system: NCI/ADR-RES
[35] = system: OVCAR-3
[36] = system: OVCAR-4
[37] = system: OVCAR-5
[38] = system: OVCAR-8
[39] = system: PC-3
[40] = system: RPMI-8226
[41] = system: RXF 393
[42] = system: SF-268
[43] = system: SF-295
[44] = system: SF-539
[45] = system: SK-MEL-28
[46] = system: SK-MEL-2
[47] = system: SK-MEL-5
[48] = system: SK-OV-3
[49] = system: SN12C
[50] = system: SNB-19
[51] = system: SNB-75
[52] = system: SR
[53] = system: SW-620
[54] = system: T47D
[55] = system: TK-10
[56] = system: U-251
[57] = system: UACC-257
[58] = system: UACC-62
[59] = system: UO-31

With `CC1=NC(C)(COC(=O)C2(C)NC(C)(CO)CO2)COC1=O` (centres undefined) the GI50 [1] was > 100 µM (inactive), the GI50 [2] was > 100 µM (inactive) and the GI50 [3] was > 100 µM (inactive). For the same molecule, the GI50 [4] was > 100 µM (inactive), the GI50 [5] was > 100 µM (inactive) and the GI50 [6] was > 100 µM (inactive). For the same molecule, the GI50 [7] was > 100 µM (inactive), the GI50 [8] was > 100 µM (inactive) and the GI50 [9] was > 100 µM (inactive). For the same molecule, the GI50 [10] was > 100 µM (inactive), the GI50 [11] was > 100 µM (inactive) and the GI50 [12] was > 100 µM (inactive). For the same molecule, the GI50 [13] was over 100 µM, the GI50 [14] was > 100 µM (inactive) and the GI50 [15] was > 100 µM (inactive). For the same molecule, the GI50 [16] was > 100 µM (inactive), the GI50 [17] was > 100 µM (inactive) and the GI50 [18] was > 100 µM (inactive). The GI50 [19] was > 100 µM (inactive), the GI50 [20] was > 100 µM (inactive) and the GI50 [21] was > 100 µM (inactive). The GI50 [22] was > 100 µM (inactive), the GI50 [23] was > 100 µM (inactive) and the GI50 [24] was > 100 µM (inactive). For the same molecule, the GI50 [25] was > 100 µM (inactive), the GI50 [26] was > 100 µM (inactive) and the GI50 [27] was > 100 µM (inactive). The GI50 [28] was > 100 µM (inactive), the GI50 [29] was > 100 µM (inactive) and the GI50 [30] was > 100 µM (inactive). For the same molecule, the GI50 [31] was > 100 µM (inactive), the GI50 [32] was > 100 µM (inactive) and the GI50 [33] was > 100 µM (inactive). The GI50 [34] was > 100 µM (inactive), the GI50 [35] was > 100 µM (inactive) and the GI50 [36] was > 100 µM (inactive). For the same molecule, the GI50 [37] was > 100 µM (inactive), the GI50 [38] was > 100 µM (inactive) and the GI50 [39] was > 100 µM (inactive). The GI50 [40] was > 100 µM (inactive), the GI50 [41] was > 100 µM (inactive) and the GI50 [42] was > 100 µM (inactive). The GI50 [43] was > 100 µM (inactive), the GI50 [44] was > 100 µM (inactive) and the GI50 [45] was > 100 µM (inactive). For the same molecule, the GI50 [46] was > 100 µM (inactive), the GI50 [47] was > 100 µM (inactive) and the GI50 [48] was > 100 µM (inactive). The GI50 [49] was > 100 µM (inactive), the GI50 [50] was > 100 µM (inactive) and the GI50 [51] was > 100 µM (inactive). The GI50 [52] was > 33 µM (inactive), the GI50 [53] was > 100 µM (inactive) and the GI50 [54] was > 100 µM (inactive). For the same molecule, the GI50 [55] was > 75 µM (inactive), the GI50 [56] was > 100 µM (inactive) and the GI50 [57] was > 100 µM (inactive). For the same molecule, the GI50 [58] was > 100 µM (inactive) and the GI50 [59] was > 100 µM (inactive).
